Experimental data taken from patent publication US20160304547A1, “MACROLIDE COMPOUND” (PULIKE BIOLOGICAL ENGINEERING, INC, priority 2013, published 2016).
Converted amounts (≈) assume the structure as drawn. Where two headings read alike, the source gives them in different places.

Assays:
[1] = test system: Streptococcus pneumoniae CMCC 31203; test: In vivo antibacterial test, survival of infected BALB/c mice; conditions: CMCC31203, sc, 168 h, read-out: Animal survival rate
[2] = test system: Actinobacillus pleuropneumoniae CVCC262; test: MIC by mini broth dilution technique (in vitro susceptibility); format: cell-based
Experimental: (§1) in vitro tests of susceptibility of the compounds according to the present disclosure against bacterial strains commonly used in laboratories. In accordance with the Performance Standards for Antimicrobial Disk Susceptibility Tests: Approved Standard published by the US National Committee for Clinical Laboratory Standards, the antibactetial activities of compounds prepared according to examples 5 to 187 were tested. The MICs (minimum inhibitory concentration) of the medicaments prepared according to the examples on the following bacterial strains were measured through mini broth dilution technique. Staphylococcus aureus CVCC26003, Streptococcus equines CVCC556. Actinobacillus pleuropneumoniae CVCC262, Haemophilus parasuis, and Pasteurella multocida CVCC399, which were purchased from the Control Institute of Veterinary Bioproducts and Pharmaceuticals, China. Liquid culture medium: […] Solid culture medium: […] The strains were taken out of a regrigerator at −20° C. to be revived, and were spreaded by streaking on the solid culture medium with an inoculating loop. The inoculated culture medium was cultured at 35° C. in a constant temperature incubator for 20 h. Monoclonal antibodies were selected from a well-grown culture plate and streaked on the solid culture medium. The inoculated culture medium was cultured at 35° C. in the constant temperature incubator for 20 h. […] A 96-well plate was used, and 100 μl of DMSO was added into each of wells 2 to 11, and 200 μl of ready-prepared medicament solution was added into the 1st well, 100 μl of the medicament solution was extracted from the 1st well and added into the 2nd well. Double dilution was performed until the 11th well, thereby forming 11 gradients. In this case, compound of parent plate was prepared. 3 μl of double diluted medicament solution was extracted with a 12-channel pipettor and added into wells 1-11 of a new disposable 96-well culture plate. The 12th well thereof is a controll well. For each medicament, there are two adjacent rows which are parallel. The transferred compound plate was reserved for later use. […] The dilution ratio was recorded, and the bacterial liquid for the tests was diluted according to the recorded dilution ratio. Subsequently, the bacterial suspension and the liquid culture medium were diluted in the proportion of 1:200. The diluted solution was reserved for later use.

[3] = test system: Streptococcus equines CVCC556; test: as above; format: cell-based
Experimental: as §1

[4] = test system: Pasteurella multocida CVCC399; test: as above; format: cell-based
Experimental: as §1

[5] = test system: Haemophilus parasuis; test: as above; format: cell-based; conditions: Glaesserella parasuis, read-out: MIC values Haemophilus parasuis
Experimental: as §1

[6] = test system: Staphylococcus aureus CVCC26003; test: as above; format: cell-based
Experimental: in vitro tests of susceptibility of the compounds according to the present disclosure against bacterial strains commonly used in laboratories. In accordance with the Performance Standards for Antimicrobial Disk Susceptibility Tests: Approved Standard published by the US National Committee for Clinical Laboratory Standards, the antibactetial activities of compounds prepared according to examples 5 to 187 were tested. The MICs (minimum inhibitory concentration) of the medicaments prepared according to the examples on the following bacterial strains were measured through mini broth dilution technique. Staphylococcus aureus CVCC26003, Streptococcus equines CVCC556. Actinobacillus pleuropneumoniae CVCC262, Haemophilus parasuis, and Pasteurella multocida CVCC399, which were purchased from the Control Institute of Veterinary Bioproducts and Pharmaceuticals, China. Liquid culture medium: CAMHB. […] Solid culture medium: NINA prepared according to the specification of the final product. The strains were taken out of a regrigerator at −20° C. to be revived, and were spreaded by streaking on the solid culture medium with an inoculating loop. The inoculated culture medium was cultured at 35° C. in a constant temperature incubator for 20 h. Monoclonal antibodies were selected from a well-grown culture plate and streaked on the solid culture medium. The inoculated culture medium was cultured at 35° C. in the constant temperature incubator for 20 h. […] A 96-well plate was used, and 100 μl of DMSO was added into each of wells 2 to 11, and 200 μl of ready-prepared medicament solution was added into the 1st well, 100 μl of the medicament solution was extracted from the 1st well and added into the 2nd well. Double dilution was performed until the 11th well, thereby forming 11 gradients. In this case, compound of parent plate was prepared. 3 μl of double diluted medicament solution was extracted with a 12-channel pipettor and added into wells 1-11 of a new disposable 96-well culture plate. The 12th well thereof is a controll well. For each medicament, there are two adjacent rows which are parallel. The transferred compound plate was reserved for later use. […] The dilution ratio was recorded, and the bacterial liquid for the tests was diluted according to the recorded dilution ratio. Subsequently, the bacterial suspension and the liquid culture medium were diluted in the proportion of 1:200. The diluted solution was reserved for later use.

[7] = BALB/c mice infected i.p. with Streptococcus pneumoniae, 5 mg per kg s.c. via neck for 3 consecutive days, deaths recorded until the seventh day
[8] = Actinobacillus pleuropneumoniae CVCC262, broth dilution, read-out: MIC values Actinobacillus pleuropneumoniae CVCC262
[9] = Streptococcus equines CVCC556, broth dilution, read-out: MIC values Streptococcus equines CVCC556
[10] = Pasteurella multocida CVCC399, broth dilution, read-out: MIC values Pasteurella multocida CVCC399
[11] = Haemophilus parasuis, broth dilution
[12] = Staphylococcus aureus CVCC26003, broth dilution, read-out: MIC values Staphylococcus aureus CVCC26003

Structure (SMILES)	responders at 5 mg/kg [1, 7] [%]	MIC [2, 8] [µg/mL]	MIC [3, 9] [µg/mL]	MIC [4, 10] [µg/mL]	MIC [5, 11] [µg/mL]	MIC [6, 12] [µg/mL]	responders at 5 mg/kg ([1]; Streptococcus pneumoniae) [%]	MIC ([2]; Actinobacillus pleuropneumoniae, CVCC262, read-out: MIC values Actinobacillus pleuropneumoniae CVCC262) [µg/mL]	MIC ([3]; Streptococcus, CVCC556, read-out: MIC values Streptococcus equines CVCC556) [µg/mL]	MIC ([4]; Pasteurella multocida, CVCC399, read-out: MIC values Pasteurella multocida CVCC399) [µg/mL]	MIC [5] [µg/mL]	MIC ([6]; Staphylococcus aureus, CVCC26003, read-out: MIC values Staphylococcus aureus CVCC26003) [µg/mL]
CC[C@@H]1OC(=O)[C@H](C)[C@H](OC2C[C@@](C)(OC)[C@](O)(CNCC(C)C)[C@H](C)O2)[C@@H](C)[C@@H](O[C@@H]2O[C@H](C)C[C@H](N(C)C)[C@H]2O)[C@](C)(O)C[C@@H](C)NC[C@@H](C)[C@H](O)[C@]1(C)O (stereo partly drawn) [syzx-12, (2R,3S,4R,5S,8R,10R,11R,12S,13S,14R)-13-[(2,6-dideoxy-3-C-methyl-3-O-methyl-4-C-[(isobutylamino)methyl]-α-L-ribopyranosyl)oxy]-2-ethyl-3,4,10-trihydroxy-3,5,8,10,12,14-hexamethyl-11-[[3,4,6-trideoxy-3-(dimethylamino)-β-D-xylo-hexopyranosy]oxy]-1-oxa-7-azacyclopentadecan-15-one]	70	≤ 0.25	≤ 0.25	≤ 0.25	≤ 0.25	≤ 0.25	–	–	–	–	–	–
CC[C@@H]1OC(=O)[C@H](C)[C@H](OC2C[C@@](C)(OC)[C@](O)(CNC(C)(C)C)[C@H](C)O2)[C@@H](C)[C@@H](O[C@@H]2O[C@H](C)C[C@H](N(C)C)[C@H]2O)[C@](C)(O)C[C@@H](C)NC[C@@H](C)[C@H](O)[C@]1(C)O (stereo partly drawn) [syzx-14]	70	0.5 (≈ 0.61 µM)	≤ 0.25	0.25 (≈ 0.305 µM)	≤ 0.25	≤ 0.25	–	–	–	–	–	–
CC[C@@H]1OC(=O)[C@H](C)[C@H](OC2C[C@@](C)(OC)[C@](O)(CN3CCCCC3)[C@H](C)O2)[C@@H](C)[C@@H](O[C@@H]2O[C@H](C)C[C@H](N(C)C)[C@H]2O)[C@](C)(O)C[C@@H](C)NC[C@@H](C)[C@H](O)[C@]1(C)O (stereo partly drawn) [syzx-15, (2R,3S,4R,5S,8R,10R,11R,12S,13S,14R)-13-[(2,6-dideoxy-3-C-methyl-3-O-methyl-4-C-[piperidinylmethyl]-α-L-ribopyranosyl)oxy]-2-ethyl-3,4,10-trihydroxy-3,5,8,10,12,14-hexamethyl-11-[[3,4,6-trideoxy-3-(dimethylamino)-β-D-xylo-hexopyranosy]oxy]-1-oxa-7-azacyclopentadecan-15-one]	70	0.5 (≈ 0.601 µM)	≤ 0.25	≤ 0.25	≤ 0.25	≤ 0.25	–	–	–	–	–	–
CC[C@@H]1OC(=O)[C@H](C)[C@H](OC2C[C@@](C)(OC)[C@](O)(CNCC3CC3)[C@H](C)O2)[C@@H](C)[C@@H](O[C@@H]2O[C@H](C)C[C@H](N(C)C)[C@H]2O)[C@](C)(O)C[C@@H](C)NC[C@@H](C)[C@H](O)[C@]1(C)O (stereo partly drawn) [syzx-17, (2R,3S,4R,5S,8R,10R,11R,12S,13S,14R)-13-[(2,6-dideoxy-3-C-methyl-3-O-methyl-4-C-[(cyclopropylmethylamino)methyl]-α-L-ribopyranosyl)oxy]-2-ethyl-3,4,10-trihydroxy-3,5,8,10,12,14-hexamethyl-11-[[3,4,6-trideoxy-3-(dimethylamino)-β-D-xylo-hexopyranosy]oxy]-1-oxa-7-azacyclopentadecan-15-one]	70	2 (≈ 2.44 µM)	≤ 0.25	0.25 (≈ 0.306 µM)	≤ 0.25	≤ 0.25	–	–	–	–	–	–
CC[C@@H]1OC(=O)[C@H](C)[C@H](OC2C[C@@](C)(OC)[C@](O)(CNC3CCCC3)[C@H](C)O2)[C@@H](C)[C@@H](O[C@@H]2O[C@H](C)C[C@H](N(C)C)[C@H]2O)[C@](C)(O)C[C@@H](C)NC[C@@H](C)[C@H](O)[C@]1(C)O (stereo partly drawn) [syzx-30, (2R,3S,4R,5S,8R,10R,11R,12S,13S,14R)-13-[(2,6-dideoxy-3-C-methyl-3-O-methyl-4-C-[(cyclopentylamino)-methyl]-α-L-ribopyranosyl)oxy]-2-ethyl-3,4,10-trihydroxy-3,5,8,10,12,14-hexamethyl-11-[[3,4,6-trideoxy-3-(dimethylamino)-β-D-xylo-hexopyranosy]oxy]-1-oxa-7-azacyclopentadecan-15-one]	80	0.5 (≈ 0.601 µM)	≤ 0.25	≤ 0.25	0.5 (≈ 0.601 µM)	≤ 0.25	–	–	–	–	–	–
CC[C@@H]1OC(=O)[C@H](C)[C@H](OC2C[C@@](C)(OC)[C@](O)(CNCc3cccc(OC)c3)[C@H](C)O2)[C@@H](C)[C@@H](O[C@@H]2O[C@H](C)C[C@H](N(C)C)[C@H]2O)[C@](C)(O)C[C@@H](C)NC[C@@H](C)[C@H](O)[C@]1(C)O (stereo partly drawn) [syzx-35, (2R,3S,4R,5S,8R,10R,11R,12S,13S,14R)-13-[(2,6-dideoxy-3-C-methyl-3-O-methyl-4-C-[[3-methoxybenzyl-amino]-methyl]-α-L-ribopyranosyl)oxy]-2-ethyl-3,4,10-trihydroxy-3,5,8,10,12,14-hexamethyl-11-[[3,4,6-trideoxy-3-(dimethylamino)-β-D-xylo-hexopyranosy]oxy]-1-oxa-7-azacyclopentadecan-15-one]	–	–	–	–	–	–	70	0.25 (≈ 0.283 µM)	0.5 (≈ 0.566 µM)	1 (≈ 1.13 µM)	0.25 (≈ 0.283 µM)	0.25 (≈ 0.283 µM)
CCCCCNC[C@]1(O)[C@H](C)OC(O[C@@H]2[C@@H](C)[C@@H](O[C@@H]3O[C@H](C)C[C@H](N(C)C)[C@H]3O)[C@](C)(O)C[C@@H](C)NC[C@@H](C)[C@H](O)[C@](C)(O)[C@H](CC)OC(=O)[C@@H]2C)C[C@@]1(C)OC (stereo partly drawn) [syzx-47, (2R,3S,4R,5S,8R,10R,11R,12S,13S,14R)-13-[(2,6-dideoxy-3-C-methyl-3-O-methyl-4-C-[[n-pentyl-amino]-methyl]-α-L-ribopyranosyl)oxy]-2-ethyl-3,4,10-trihydroxy-3,5,8,10,12,14-hexamethyl-11-[[3,4,6-trideoxy-3-(dimethylamino)-β-D-xylo-hexopyranosy]oxy]-1-oxa-7-azacyclopentadecan-15-one]	90	0.5 (≈ 0.599 µM)	≤ 0.25	≤ 0.25	0.5 (≈ 0.599 µM)	1 (≈ 1.2 µM)	–	–	–	–	–	–
CC[C@@H]1OC(=O)[C@H](C)[C@H](OC2C[C@@](C)(OC)[C@](O)(CNCc3cnc(C)cn3)[C@H](C)O2)[C@@H](C)[C@@H](O[C@@H]2O[C@H](C)C[C@H](N(C)C)[C@H]2O)[C@](C)(O)C[C@@H](C)NC[C@@H](C)[C@H](O)[C@]1(C)O (stereo partly drawn) [syzx-65]	90	32 (≈ 36.8 µM)	≤ 0.25	1 (≈ 1.15 µM)	≤ 0.25	≤ 0.25	–	–	–	–	–	–
